In ChEMBL document CHEMBL3885881, “DrugMatrix”:

Species: Rattus norvegicus
Test: DrugMatrix - Regimen: Daily Repeat
Assay type: toxicity, organism-based, Sprague-Dawley
Design: regimen Daily Repeat, gender Male, age 6-8 weeks
Settings: in vivo, po, route oral GAVAGE, vehicle 100 % SALINE; for ABSOLUTE BASOPHIL / ABSOLUTE EOSINOPHIL / ABSOLUTE LYMPHOCYTE / ABSOLUTE MONOCYTE / ABSOLUTE SEGMENTED NEUTROPHIL / BASOPHIL / EOSINOPHIL / ERYTHROCYTE COUNT / HEMATOCRIT / HEMOGLOBIN / LEUKOCYTE COUNT / MEAN CORPUSCULAR HEMOGLOBIN / MEAN CORPUSCULAR HEMOGLOBIN CONCENTRATION / MEAN CORPUSCULAR VOLUME / MONOCYTE / NEUTROPHIL / NUCLEATED RED BLOOD CELLS / PLATELET COUNT: tissue Blood; for ALANINE AMINOTRANSFERASE / ALBUMIN / ALKALINE PHOSPHATASE / ASPARTATE AMINOTRANSFERASE / BLOOD UREA NITROGEN / CARBON DIOXIDE / CHLORIDE / CHOLESTEROL / CREATINE PHOSPHOKINASE / CREATININE / GLUCOSE / LACTATE DEHYDROGENASE / LIPASE / PHOSPHORUS / POTASSIUM / SODIUM / TOTAL BILIRUBIN / TOTAL PROTEIN / URIC ACID: tissue Plasma
[1] = 40 mg/kg, 120 h, dose level Low, time 5 day
[2] = 195 mg/kg, 72 h, dose level High, time 3 day
[3] = 195 mg/kg, 120 h, dose level High, time 5 day

Oc1ccccc1O [CATECHOL]
ABSOLUTE BASOPHIL [1]: 0 CELLS/uL | ABSOLUTE EOSINOPHIL [1]: 30.67 CELLS/uL | ABSOLUTE LYMPHOCYTE [1]: 8416.67 CELLS/uL | ABSOLUTE MONOCYTE [1]: 0 CELLS/uL | ABSOLUTE SEGMENTED NEUTROPHIL [1]: 952.67 CELLS/uL | BASOPHIL [1]: 0% | EOSINOPHIL [1]: 0.33% | ERYTHROCYTE COUNT [1]: 5.53 x10E6/uL | HEMATOCRIT [1]: 33.83% | HEMOGLOBIN [1]: 13.17 G/DL | LEUKOCYTE COUNT [1]: 9.4 x10E3/uL | MEAN CORPUSCULAR HEMOGLOBIN [1]: 23.8 pg | MEAN CORPUSCULAR HEMOGLOBIN CONCENTRATION [1]: 38.93 G/DL | MEAN CORPUSCULAR VOLUME [1]: 61.13 fL | MONOCYTE [1]: 0% | NEUTROPHIL [1]: 10.67% | NUCLEATED RED BLOOD CELLS [1]: 0 /100WBC | PLATELET COUNT [1]: 1168.67 x10E3/uL | ALANINE AMINOTRANSFERASE [1]: 60.67 u/L | ALBUMIN [1]: 4.17 G/DL | ALKALINE PHOSPHATASE [1]: 318.33 u/L | ASPARTATE AMINOTRANSFERASE [1]: 89.67 u/L | BLOOD UREA NITROGEN [1]: 16 mg/dL | CARBON DIOXIDE [1]: 26 mmol/L | CHLORIDE [1]: 104.67 MEQ/L | CHOLESTEROL [1]: 77.67 mg/dL | CREATINE PHOSPHOKINASE [1]: 225.33 u/L | CREATININE [1]: 0.14 mg/dL | GLUCOSE [1]: 162 mg/dL | LACTATE DEHYDROGENASE [1]: 134.67 u/L | LIPASE [1]: 9 u/L | PHOSPHORUS [1]: 10.23 mg/dL | POTASSIUM [1]: 5.58 MEQ/L | SODIUM [1]: 152 MEQ/L | TOTAL BILIRUBIN [1]: 0.2 mg/dL | TOTAL PROTEIN [1]: 6.03 G/DL | URIC ACID [1]: 0.77 mg/dL | ABSOLUTE BASOPHIL [2]: 0 CELLS/uL | ABSOLUTE EOSINOPHIL [2]: 0 CELLS/uL | ABSOLUTE LYMPHOCYTE [2]: 16294.67 CELLS/uL | ABSOLUTE MONOCYTE [2]: 122.33 CELLS/uL | ABSOLUTE SEGMENTED NEUTROPHIL [2]: 1316.33 CELLS/uL | BASOPHIL [2]: 0% | EOSINOPHIL [2]: 0% | ERYTHROCYTE COUNT [2]: 5.5 x10E6/uL | HEMATOCRIT [2]: 33.6% | HEMOGLOBIN [2]: 13.2 G/DL | LEUKOCYTE COUNT [2]: 17.73 x10E3/uL | MEAN CORPUSCULAR HEMOGLOBIN [2]: 24 pg | MEAN CORPUSCULAR HEMOGLOBIN CONCENTRATION [2]: 39.27 G/DL | MEAN CORPUSCULAR VOLUME [2]: 61.13 fL | MONOCYTE [2]: 0.67% | NEUTROPHIL [2]: 7.33% | NUCLEATED RED BLOOD CELLS [2]: 0 /100WBC | PLATELET COUNT [2]: 1440 x10E3/uL | ALANINE AMINOTRANSFERASE [2]: 50.67 u/L | ALBUMIN [2]: 4.1 G/DL | ALKALINE PHOSPHATASE [2]: 278.67 u/L | ASPARTATE AMINOTRANSFERASE [2]: 78 u/L | BLOOD UREA NITROGEN [2]: 12.33 mg/dL | CARBON DIOXIDE [2]: 25 mmol/L | CHLORIDE [2]: 100.33 MEQ/L | CHOLESTEROL [2]: 73 mg/dL | CREATINE PHOSPHOKINASE [2]: 460.33 u/L | CREATININE [2]: 0.2 mg/dL | GLUCOSE [2]: 161.33 mg/dL | LACTATE DEHYDROGENASE [2]: 133.67 u/L | LIPASE [2]: 10.67 u/L | PHOSPHORUS [2]: 11.7 mg/dL | POTASSIUM [2]: 6.15 MEQ/L | SODIUM [2]: 140.17 MEQ/L | TOTAL BILIRUBIN [2]: 0.17 mg/dL | TOTAL PROTEIN [2]: 5.9 G/DL | URIC ACID [2]: 1.73 mg/dL | ABSOLUTE BASOPHIL [3]: 0 CELLS/uL | ABSOLUTE EOSINOPHIL [3]: 0 CELLS/uL | ABSOLUTE LYMPHOCYTE [3]: 12717.67 CELLS/uL | ABSOLUTE MONOCYTE [3]: 34 CELLS/uL | ABSOLUTE SEGMENTED NEUTROPHIL [3]: 981.67 CELLS/uL | BASOPHIL [3]: 0% | EOSINOPHIL [3]: 0% | ERYTHROCYTE COUNT [3]: 5.35 x10E6/uL | HEMATOCRIT [3]: 33.67% | HEMOGLOBIN [3]: 13.33 G/DL | LEUKOCYTE COUNT [3]: 13.73 x10E3/uL | MEAN CORPUSCULAR HEMOGLOBIN [3]: 24.93 pg | MEAN CORPUSCULAR HEMOGLOBIN CONCENTRATION [3]: 39.6 G/DL | MEAN CORPUSCULAR VOLUME [3]: 62.9 fL | MONOCYTE [3]: 0.33% | NEUTROPHIL [3]: 7% | NUCLEATED RED BLOOD CELLS [3]: 0 /100WBC | PLATELET COUNT [3]: 1267.33 x10E3/uL | ALANINE AMINOTRANSFERASE [3]: 63.67 u/L | ALBUMIN [3]: 4.47 G/DL | ALKALINE PHOSPHATASE [3]: 326 u/L | ASPARTATE AMINOTRANSFERASE [3]: 93 u/L | BLOOD UREA NITROGEN [3]: 15.33 mg/dL | CARBON DIOXIDE [3]: 27 mmol/L | CHLORIDE [3]: 102.67 MEQ/L | CHOLESTEROL [3]: 74.33 mg/dL | CREATINE PHOSPHOKINASE [3]: 321 u/L | CREATININE [3]: 0.14 mg/dL | GLUCOSE [3]: 145.33 mg/dL | LACTATE DEHYDROGENASE [3]: 130.67 u/L | LIPASE [3]: 10 u/L | PHOSPHORUS [3]: 10.1 mg/dL | POTASSIUM [3]: 6.03 MEQ/L | SODIUM [3]: 151 MEQ/L | TOTAL BILIRUBIN [3]: 0.2 mg/dL | TOTAL PROTEIN [3]: 6.43 G/DL | URIC ACID [3]: 0.73 mg/dL
